# In PMC8222713, “Variation of Two S3b Residues in KV4.1–4.3 Channels Underlies Their Different Modulations by Spider Toxin κ-LhTx-1” (Frontiers in Pharmacology, 2021):
# Where a SMILES comes first, the peptide text is derived from it. Bridges are numbered along the chain shown (N, C = ends).
# Columns and labels:
# [1] = system: KV4.1/280VMTN chimeric channel; test: Whole-cell patch clamp, KV4.1/280VMTN chimera in CHO-K1 cells; assay type: cell-based, mouse; settings: mean ± SEM
# Method: (§1) The cDNA of hKV1.1, hKV1.3, rKV1.4, hKV1.5, rKV2.1, hKV3.1–3.4, mKV4.1, rKV4.2, and rKV4.3 were subcloned in the eukaryotic expression vector pCDNA3.1 or pCMV-blank. Channel mutants were made by a site-directed mutation method. Briefly, a pair of oppositely directed primers with 15 bp overlap at their 5′ ends and the designed mutation site were used to amplify the parental channel plasmid, then the PCR mix was treated with DpnI to remove the template. 10 μL digestion mix was directly used to transform 100 μL DH5α chemical competent cells. The correct mutation made by this procedure was finally confirmed by DNA sequencing. CHO-K1 cells (ATCC® CCL-61™) were grown in DMEM-F12 mixed medium (1:1) supplemented with 10% FBS and maintained in standard conditions (saturated humidity, 37°C, 5% CO2). Channel plasmid was co-transfected with pEGFP-N1 (encodes the green fluoresence protein) into CHO-K1 cells using lipofectamine 2000 following the manufacturer’s instructions. 4–6 h after transfection, cells were seeded onto poly-lysine (PLL) coated coverslips, and 24–36 h later, transfected cells were ready for patch-clamp analysis. It should be note that KV4.2 and its mutants were also co-expressed with hKChIP1 to promote their functional expressions.
# (§2) Whole-cell patch clamp recording was performed in an electrophysiology platform equipped with MultiClamp 700B amplifier and Axon Digidata 1550 AD/DA convertor (Axon Instruments, Irvine, CA, United States). Data were acquired using the pClamp software (Axon Instruments, Irvine, CA, United States). All experiments were performed at room temperature. The bath solution contains (in mM): 140 NaCl, 5 KCl, 1 MgCl2, 2 CaCl2, 10 glucose, and 10 HEPES (pH = 7.3). The pipette solution contains (in mM): 140 KCl, 2.5 MgCl2, 11 EGTA, and 10 HEPES (pH = 7.3). Series resistance was kept below 10 MΩ and compensated to 80%. The concentration–response curves were fitted by a Hill logistic equation to estimate the potency (IC50) of the toxin. The whole cell conductance (G) at each depolarizing voltage (V) was determined using the equation: G = I/(V−Vrev), where I and Vrev represents the current amplitude and the reversal potential, respectively. In the present study, Vrev for K^+ current is determined to be −85.61 mV using the Nernst equation. G-V curve was obtained by plotting the normalized G as a function of V and fitted by the Boltzmann equation: y = 1/{1 + exp [(Va−V)/K]}, in which Va, V, and K represents half-maximum activation voltage, test voltage and slope factor, respectively. The steady-state fast inactivation of KV4 channels was measured using a classical two-pulses protocol: cell was held at −120 mV, and a train of conditional voltages (−120–40 mV, in 10 mV increment, 1,000 ms) were applied to induce channel inactivation, followed by a +60 mV test pulse (300 ms) to assess the proportion of non-inactivated channels; the sweep interval was set to 10 s. Currents at the test pulse (I) were normalized to the maximum value (Imax) and plotted as a function of the conditional voltage (V), the curve was fitted by the Boltzmann equation: I/Imax = A + (1−A)/{1 + exp [(V−Vh)/K]}, where Vh is the half-maximum inactivation voltage, A represents the minimum channel availability, and K is the slope factor. Gating currents of KV4.1–4.3 channels were measured as previously reported ([Tilley et al., 2019]). Briefly, the ionic pore currents were abolished by replacing K^+ with NMDG^+ in the pipette solution, and 10 µM Cs^+ was present in the bath solution to occupy the selectivity filter of KV channels to prevent decay of the gating currents during recording.
# (§3) Data were presented as MEAN ± SEM, n represents the number of separate experimental cells. Data were analyzed using the software Clampfit 10.5 (Axon Instruments, Irvine, CA, United States), Graphpad Prism 5.01 (GraphPad Software, La Jolla, CA, United States) and Excel 2010 (Microsoft Corporation, Redmond, WA, United States). […]
# [2] = system: KV4.2/T282P mutant (T280P in text); test: Whole-cell patch clamp, KV4.2/T282P (text: KV4.2/T280P) (with hKChIP1) in CHO-K1 cells; assay type: cell-based, rat
# Method: as §1
# as §2, with “Currents at the test pulse (I) were normalized to the maximum value (Imax) and plotted as a function of the conditional voltage (V), the curve was fitted by the Boltzmann equation: I/Imax = A + (1−A)/{1 + exp [(V−Vh)/K]}, where Vh is the half-maximum inactivation voltage, A represents the minimum channel availability, and K is the slope factor.” left out, “Briefly, the ionic pore currents were abolished by replacing K^+ with NMDG^+ in the pipette solution, and 10 µM Cs^+ was present in the bath solution to occupy the selectivity filter of KV channels to prevent decay of the gating currents during recording.” left out
# as §3
# [3] = system: KV4.2/D281K mutant; test: Whole-cell patch clamp, KV4.2/D281K (with hKChIP1) in CHO-K1 cells; assay type: cell-based, rat
# Method: as §1, §2, §3
# [4] = system: KV4.2/280PK (T280P/D281K double mutant); test: Whole-cell patch clamp, KV4.2/280PK (with hKChIP1) in CHO-K1 cells; assay type: cell-based, rat
# Method: as §1, §2, §3
# [5] = system: KV4.2/277LV/AA mutant; test: Whole-cell patch clamp, KV4.2/277LV/AA (with hKChIP1) in CHO-K1 cells; assay type: cell-based, rat; settings: KV4.2/277LV/AA at Va depolarizing voltage, n = 5–7
# Method: (§4) The cDNA of hKV1.1, hKV1.3, rKV1.4, hKV1.5, rKV2.1, hKV3.1–3.4, mKV4.1, rKV4.2, and rKV4.3 were subcloned in the eukaryotic expression vector pCDNA3.1 or pCMV-blank. Channel mutants were made by a site-directed mutation method. Briefly, a pair of oppositely directed primers with 15 bp overlap at their 5′ ends and the designed mutation site were used to amplify the parental channel plasmid, then the PCR mix was treated with DpnI to remove the template. 10 μL digestion mix was directly used to transform 100 μL DH5α chemical competent cells. The correct mutation made by this procedure was finally confirmed by DNA sequencing. […] 4–6 h after transfection, cells were seeded onto poly-lysine (PLL) coated coverslips, and 24–36 h later, transfected cells were ready for patch-clamp analysis. […]
# (§5) Whole-cell patch clamp recording was performed in an electrophysiology platform equipped with MultiClamp 700B amplifier and Axon Digidata 1550 AD/DA convertor (Axon Instruments, Irvine, CA, United States). […] The whole cell conductance (G) at each depolarizing voltage (V) was determined using the equation: G = I/(V−Vrev), where I and Vrev represents the current amplitude and the reversal potential, respectively. In the present study, Vrev for K^+ current is determined to be −85.61 mV using the Nernst equation. […] Gating currents of KV4.1–4.3 channels were measured as previously reported ([Tilley et al., 2019]). […]
# [6] = system: KV1.4 channel (rKV1.4); test: Whole-cell patch clamp selectivity, KV1.4; assay type: cell-based, rat; settings: KV1.4, 10 µM, n = 5
# Method: as §4, §5
# [7] = system: KV1.5 channel (hKV1.5); test: Whole-cell patch clamp selectivity, KV1.5; assay type: cell-based, human; settings: KV1.5, 10 µM, n = 5
# Method: as §4, §5
# [8] = system: KV2.1 channel (rKV2.1); test: Whole-cell patch clamp selectivity, KV2.1; assay type: cell-based, rat; settings: KV2.1, 10 µM, n = 5
# Method: as §4, §5
# [9] = system: KV3.1 channel (hKV3.1); test: Whole-cell patch clamp selectivity, KV3.1; assay type: cell-based, human; settings: KV3.1, 10 µM, n = 5
# Method: as §4, §5
# [10] = system: KV4.1 channel gating currents; test: Gating current recording, KV4.1; assay type: cell-based, mouse; settings: KV4.1, n = 5–6
# Method: as §4, §5
# [11] = 10 μM κ-LhTx-1, two-pulse protocol, n = 5
# [12] = 10 μM κ-LhTx-1, KV4.2/T282P, G-V, mean ± SEM, n = 5
# [13] = 10 μM κ-LhTx-1, KV4.2/T282P, two-pulse protocol, mean ± SEM, n = 5
# [14] = 10 μM κ-LhTx-1, G-V, mean ± SEM, n = 6
# [15] = 10 μM κ-LhTx-1, two-pulse protocol, mean ± SEM, n = 6
# [16] = Va shift by 10 μM κ-LhTx-1 vs control, mean ± SEM
# [17] = Vh shift by 10 μM κ-LhTx-1 vs control, mean ± SEM
# [18] = 10 μM κ-LhTx-1, two-pulse protocol, mean ± SEM, n = 5
smiles,measurement,setting,value
"CC[C@H](C)[C@@H]1NC(=O)[C@H](CCC(N)=O)NC(=O)[C@@H]2CSSC[C@@H]3NC(=O)[C@H](CC(C)C)NC(=O)[C@H](CC(N)=O)NC(=O)[C@H](CCSC)NC(=O)[C@H](Cc4c[nH]c5ccccc45)NC(=O)[C@H](CO)NC(=O)[C@H](C)NC(=O)[C@@H](NC(=O)[C@H](CCC(=O)O)NC(=O)[C@H](CCC(N)=O)NC(=O)[C@H](C)NC(=O)[C@H](CC(=O)O)NC(=O)[C@@H](N)CCC(=O)O)CSSC[C@H](NC(=O)[C@H](CSSC[C@@H](C(=O)N[C@@H](CCCCN)C(=O)N[C@@H](Cc4ccc(O)cc4)C(=O)N[C@@H](CCCCN)C(=O)N[C@@H](CC(C)C)C(N)=O)NC(=O)[C@H](Cc4c[nH]c5ccccc45)NC1=O)NC(=O)[C@H](CCCCN)NC(=O)[C@H](CCCCN)NC(=O)[C@H](CCC(=O)O)NC(=O)CNC3=O)C(=O)N[C@@H](CCC(=O)O)C(=O)NCC(=O)N[C@@H](Cc1ccc(O)cc1)C(=O)N[C@@H](C(C)C)C(=O)N2 [κ-LhTx-1] (H-EDAQECASWMNLCGEKKCCEGYVCQIWCKYKL-NH2; disulfide 6-19, 13-24, 18-28 (inferred); N-terminus and C-terminus assumed)",Va (steady-state activation),"[1]; 10 μM κ-LhTx-1, G-V, n = 5",58.61 ± 1.63 mV
same,"k, slope factor (steady-state activation)","[1]; 10 μM κ-LhTx-1, G-V, n = 5",19.00 ± 0.81 mV
same,Vh (steady-state inactivation),[1]; [11],-44.55 ± 2.07 mV
same,"k, slope factor (steady-state inactivation)",[1]; [11],9.86 ± 1.33 mV
same,∆Va (steady-state activation),[1]; Va shift by 10 μM κ-LhTx-1 vs control,61.44 ± 1.98 mV
same,∆Vh (steady-state inactivation),[1]; Vh shift by 10 μM κ-LhTx-1 vs control,13.52 ± 2.24 mV
same,inhi%(min),"[1]; inhibition ratio at +100 mV, 10 μM",−2.82 ± 3.37%
same,Va (steady-state activation),[2]; [12],16.93 ± 2.90 mV
same,"k, slope factor (steady-state activation)",[2]; [12],25.61 ± 0.68 mV
same,Vh (steady-state inactivation),[2]; [13],-71.72 ± 3.71 mV
same,"k, slope factor (steady-state inactivation)",[2]; [13],5.86 ± 0.21 mV
same,toxin inhibition,"[2]; KV4.2/T280P, 10 μM, all voltages, n = 5–6",resistant to toxin inhibition at all voltages
same,Va (steady-state activation),[3]; [14],61.96 ± 1.96 mV
same,"k, slope factor (steady-state activation)",[3]; [14],18.73 ± 0.70 mV
same,Vh (steady-state inactivation),[3]; [15],-27.43 ± 2.53 mV
same,"k, slope factor (steady-state inactivation)",[3]; [15],15.24 ± 1.42 mV
same,voltage-dependence of inhibition vs parental KV4.2,"[3]; 10 μM, still greater than in KV4.1",much less voltage-dependence
same,∆Va (steady-state activation),[3]; [16],68.10 ± 2.92 mV
same,∆Vh (steady-state inactivation),[3]; [17],33.23 ± 2.95 mV
same,∆Va and inhi%(min) vs KV4.1,[4]; 10 μM,not significantly different from those in KV4.1
same,Va (steady-state activation),[4]; [14],82.17 ± 1.67 mV
same,"k, slope factor (steady-state activation)",[4]; [14],13.22 ± 1.15 mV
same,Vh (steady-state inactivation),[4]; [18],-9.93 ± 2.94 mV
same,"k, slope factor (steady-state inactivation)",[4]; [18],11.46 ± 1.10 mV
same,∆Va (steady-state activation),[4]; [16],102.8 ± 3.22 mV
same,∆Vh (steady-state inactivation),[4]; [17],43.66 ± 3.77 mV
same,effect of mutation on toxin inhibition,[5],profoundly weakened the effect
same,effect on currents,[6],did not remarkably affect the currents
same,effect on currents,[7],did not remarkably affect the currents
same,effect on currents,[8],did not remarkably affect the currents
same,effect on currents,[9],did not remarkably affect the currents
same,gating current inhibition,[10],inhibited the gating currents
